Measured values from patent US8835617B2, “Polynucleotides encoding a human TRIM-Cyp fusion polypeptide, compositions thereof, and methods of using same” (priority 2008, dated 2014).
Read-outs that look alike come from different tables or passages of the source. Marks after values point to notes of the source that are not given here.

Legend:
HIV-1NL4-3 = test: HIV-1 challenge of CD4+ T cell cultures with <25% transduced cells; assay type: cell-based
Text: These conditions would be more realistic of hT5Cyp therapy in patients. […] The survival advantage of CD4^+ T cell becomes apparent when analyzing the viability of the cells by forward versus side-scatter and gating on live lymphocytes; a method that had to be adopted since the cells were fixed in paraformaldehyde for flow cytometry analysis.

[1] = tested on: primary human CD4+ T cells; test: Proliferation, IL-2 production and surface markers of transduced primary CD4+ T cells; assay type: cell-based
Text: The functions of endogenous CypA and T5 in hCD4^+ T cells remain largely uncharacterized. […] This complex inhibits T cell function by binding to the serine/threonine phosphatase calcineurin and blocking downstream signaling events (Handschumacher et al., 1984; Liu et al., 1991). Functionally, CypA is a peptidyl-prolyl isomerase (PPiase) which catalyses the rate-limiting cis-trans interconversion of peptide bonds N-terminal to proline, an enzymatic activity not required for immunosuppression via CsA (Fischer et al., 1984; Liu et al., 1991; Schmid, 1995). The peptidyl-prolyl isomerases are represented by three structurally distinct families: cyclophilins, FKBPs, and parvulins. Given their astounding evolutionary persistence, from some archeabacteria to all mammals, cyclophilins are not well understood (Colgan et al., 2000; Gothel and Marahiel, 1999).
Activated, scAPLS-transduced primary human CD4^+ T cells were maintained in culture for 6 days. 1×10^5 cells were transferred in triplicate into 96-well flat-bottom microplates (Falcon) and labeled for 18 h with […] of ^[3H]thymidine (GE-Amersham). The DNA-incorporated radioactivity was measured by liquid scintillation counting. Data were expressed as mean corrected counts per minute (ccpm) of […] cultures.
IL-2 producing capacity of hT5Cyp-expressing primary human T cells was assessed after stimulation for 6 h with 100 nM PMA and 1 μg/ml Ionomycin (Sigma-Aldrich). Brefeldin A (Sigma-Aldrich) was added at 10 μg/ml during the last 4 h of stimulation.
The following antibodies were used for cell surface stains of primary CD4^+ T cells: α-CD4 (RPA-T4), α-CXCR4 (12G5), and α-MHC I (HLA A, B, C) (G46-2.6) (all from BD-Pharmingen).

HIV-1 [2] = conditions: quantitative PCR, Jurkat
Experimental: (§1) Since the objective was to engineer a fully human HIV-1 restriction factor, hCypA was the fused at 10 different positions along the length of hT5α (FIG. 44A).
Total cellular DNA was extracted from 2×10^6 Jurkat T cells using the DNeasy Blood and Tissue kit (Qiagen). qPCR was performed with the Applied Biosystems 7900HT system, using 250 ng total DNA and Taqman Gene Expression master mix (Applied Biosystems). Each experimental condition was performed in triplicate and data analyzed using the SDS software, version 2.2.2 (Applied Biosystems).

HIV-1 [3] = conditions: U937, CEM-SS, SUP-T1, H9, HUH-7, CRFK, 293T
Text: as §1

HIV-1 [4] = tested on: HIV-1
Text: The timing of HIV-1 infection was changed to allow for a stabilization of engraftment prior to assessment of viral replication.
HIV-1 down-regulates cell-surface expression of CD4 (Chen et al., 1996). […] Finally, tissue sections of thymi were directly examined for human T cells (using anti-CD3 antibody) and HIV-1 p24 antigen.
The MLNs are closest to the site of HIV-1 infection (i.p), while the PLNs are further away.
Rag2^−/−γc^−/− mice on a BALB/c background (provided by M. Ito; Central Institute for Experimental Animals, Kawasaki, Japan) were bred and maintained under specific pathogen-free conditions in accordance with the guidelines of the animal facility at the Institute for Research in Biomedicine. CL2 MBP (clodronate) was from Roche Diagnostics (Mannheim, Germany). Preparation of liposomes containing CL2 MBP was done as described previously (Van Rooijen and Sanders, 1994). 6-10 week-old mice received 100 ul of clodronate liposomes intraperitoneally (i.p.) 24 hours prior to irradiation using a single sublethal dose of 4.0 Gray (Gy) from a Cesium 137 source (Biobeam 8000, STS GmbH, Braunschweig, Germany) at 3.75 Gy/min. […] CD4^+ T cell engraftment and maintenance in mice was measured by flow cytometry. To obtain peripheral blood cells and plasma, mice were bled from the retro-orbital venous sinus under anesthesia and red blood cells were lysed. When sacrificed, single cell suspensions from organs were prepared. For FACS analysis monoclonal antibodies against the following antigens were used: CD3 (UCHT1), CD4 (13B8.2), CD8 (B9.11), p24 (clone KC57) (all Immunotech/Beckman Coulter, Marseille, France), CD45 (HI30) (Caltag, Burlingame, Calif.). Intracellular staining for p24 was performed on single cell suspensions from mesenteric lymph nodes and thymus following staining with anti-CD3 antibody. Cells were washed, permeabilized, and fixed by treatment with BD Cytofix/Cytoperm (BD Pharmingen) and stained with anti-p24 antibody in BD Permwash solution (BD Pharmingen) following the manufacturer's instructions. Plasma HIV RNA concentrations were determined by Cobas Amplicor RT-PCR assay (Roche Diagnostics, Basel, Switzerland). Immunohistochemical stainings were performed as previously described (Baenziger et al., 2006). To assess nonspecific binding, tissue from untransplanted and uninfected transplanted mice was stained as controls.
Rag2^−/−γc^−/− mice on a BALB/c background (provided by M. Ito; Central Institute for Experimental Animals, Kawasaki, Japan) were bred and maintained under specific pathogen-free conditions in accordance with the guidelines of the animal facility at the Institute for Research in Biomedicine (Bellinzona) and the Swiss Federal Veterinary Office (Bern). […] CD4^+ T cell engraftment and maintenance in mice was measured by flow cytometry. […]

Substance: hT5Cyp: human TRIM5α fused at serine 322 to human cyclophilin A, SEQ ID NO:12
- RT activity in the culture supernatant (HIV-1NL4-3; mixed culture): significantly lower
- day of peak viral replication (HIV-1NL4-3; mixed culture): 28 days
- transduced cells in the culture after HIV-1 infection (HIV-1NL4-3; start <25% transduced): 75%
- IL-2 production ([1]; PMA and ionomycin): produced comparable amounts of IL-2
- proliferation ([1]; thymidine incorporation vs untransduced): proliferated at the same rate as untransduced cells
- cell-surface marker expression ([1]; vs untransduced): expressed the same level of cell-surface CD4, CXCR4, and MHC I
- accumulation of viral cDNA (HIV-1 [2]): blocked the accumulation of viral cDNA
- HIV-1 restriction in further cell lines (HIV-1 [3]): restricted HIV-1
- p24^+ transduced human T cells (HIV-1 [4]; MLN or PLN, CCR5-tropic HIV-1): Few if any
- mean viral load (HIV-1 [4]; n=8 per group): 1.6×10^5 (+/−1.1×10^5) copies viral RNA/ml plasma
- down-regulation of cell surface CD4 (HIV-1 [4]; thymi and lymph nodes): prevented the down-regulation of cell surface CD4
- p24^+ transduced human T cells (HIV-1 [4]; thymi or mesenteric lymph nodes): Few if any
